How the values were obtained:
[1] = Pharmacokinetic study of CPGS in rat plasma after oral clopidogrel alone or with FDDP; format: in vivo, SD rats
Experimental: Analyses were performed using the Agilent HPLC 1100 system (Agilent, USA) consisting of a quat pump (G1311A), an autosampler (G1313A), and an online degasser (G1322A). The chromatographic separation was performed on an Agilent Zorbax SB C18 column (4.6 mm × 250 mm, 5 μm). A simple gradient method was used, in which the percentage of acetonitrile-buffer (0.2% phosphoric acid in water) was varied as shown in Table 1 at a flow rate of 1.0 mL/min. The injection volume was 10 μL. The total LC run time was 12 min with the column temperature kept at 30°C and the detection at a wavelength of 220 nm.
An aliquot of 10 μL 1 M hydrochloric acid (HCL), 100 μL blood plasma, and 10 μL of IS (160 μg/mL) was added into a 1.5 mL centrifuge tube. After vortex-mixing for 1 min, 1 mL of extraction solvent (ethyl acetate-dichloromethane; 4 : 1, V/V) was added and vortexed vigorously for 4 min, followed by centrifugation for 12 min at 12000 rpm. Next, 950 μL of supernatant was transferred into another tube and evaporated to dryness at 40°C for 90 min under a gentle stream of nitrogen. The residue was reconstituted with 100 μL of the mobile phase and vortexed for 1 min and then centrifuged for 5 min at 12000 rpm. For analysis, 10 μL of the supernatant was injected onto the HPLC system. The plasma concentrations of the analytes exceeded the upper limit of quantification, and therefore the sample was diluted with blank plasma and vortexed for 1 min. A 100 μL aliquot of diluted sample was processed under the same sample pretreatment procedure as mentioned above.
The preclinical pharmacokinetic study was based on 16 SD rats. The investigation was approved by the Animal Ethics Committee of the Nanjing University of Traditional Chinese Medicine. Two groups of 8 rats each were used according to a parallel study. The clopidogrel-only group received 30 mg/kg oral administration of clopidogrel. The combination group (clopidogrel 30 mg/kg + FDDP 324 mg/kg) received their dose administered as a combination. The rats fasted for 12 h prior to the experiment, while free access to water remained. Plasma samples were collected at 0, 0.25, 0.5, 1, 1.5, 2.3, 4, 6, 8, 10, 12, and 24 h after dosing. Blood samples of 400 μL were obtained via an in-dwelling catheter in the caudal vein and collected into heparinized tubes. Then, the plasma was centrifuged for 10 min at 4000 rpm and the supernatant was transferred to labelled plastic vials at −80°C until the completion of the analysis.
Pharmacokinetic parameters were calculated using Drug and Statistic (DAS) 3.0 pharmacokinetic software (Chinese Pharmacological Association, Anhui, China). The pharmacokinetic parameters included the compartment parameters and statistical parameters (Table 6).
The area under the plasma concentration-time curve (AUC) was calculated using the linear trapezoidal rule. The elimination rate constant (kel) was calculated by linear regression of the terminal points of the semilog plot of the plasma concentration against time. The half-life of drug elimination during the terminal phase (t 1/2) was calculated from the formula t 1/2 = 0.693/kel. Mean residence time (MRT) was calculated as AUMC/AUC, where AUMC is the area under the first moment of the plasma concentration-time curve. The volume of distribution (Vd) of the central compartment was calculated as dose/C 0, where C 0 is the concentration measured just after the administration. Plasma clearance (CL) was calculated as dose/AUC.

[2] = Stability of CPGS in plasma samples (HPLC method validation); format: physicochemical, rat
Experimental: Stability experiments were performed to evaluate the analyte stability in stock solutions and in plasma samples under different conditions. Room temperature stability, refrigerated stability of extracted sample, freeze-thaw stability, and long-term stability were performed using three replicates at each QC level.

[3] = tested on: carboxyl esterase 1 (CES1); conditions: in the liver; cited from earlier work
antiplatelet responses = conditions: conventional doses of clopidogrel; cited from earlier work
cytochrome P450 (CYP) = conditions: cited from earlier work
[4] = CPGS in rat plasma, clopidogrel 30 mg/kg intragastric, administered alone, 21 days
[5] = CPGS in rat plasma, coadministration clopidogrel 30 mg/kg + FDDP 324 mg/kg intragastric, 21 days
[6] = CPGS in rat plasma, coadministration clopidogrel 30 mg/kg + FDDP 324 mg/kg intragastric, 21 days, P < 0.05 vs clopidogrel-only
[7] = combination vs clopidogrel alone, rats
[8] = combination vs clopidogrel-only group, rats
[9] = combination vs clopidogrel-only group, rats, not statistically significant

For O=C(O)[C@H](c1ccccc1Cl)N1CCc2sccc2C1 [CPGS], the “AUC (0–tn)” value [1, 4] was 90.529 ± 18.557 mg/L∗h, the “AUC (0–∞)” value [1, 4] was 104.965 ± 24.367 mg/L∗h and the CL/F [1, 4] was 5.15 ± 2.08 mL/min/kg. For the same compound, the Ka [1, 4] was 6.807 ± 6.698, the MAT [1, 4] was 13.336 ± 2.566 h and the “MRT (0–tn)” value [1, 4] was 7.453 ± 0.747 h. The “MRT (0–∞)” value [1, 4] was 11.359 ± 2.022 h, the T1/2β [1, 4] was 14.788 ± 14.311 h and the T max [1, 4] was 1.208 ± 0.332 h. The V/F [1, 4] was 5.079 ± 2.153 L/kg, the “AUC (0–tn)” value [1, 5] was 70.314 ± 35.213 mg/L∗h and the “AUC (0–∞)” value [1, 5] was 76.324 ± 39.971 mg/L∗h. It also gave a C max [1, 5] of 10146 ± 4848 ng/mL, a CL/F [1, 5] of 7.58 ± 3.07 mL/min/kg and a Ka [1, 5] of 2.519 ± 3.073. The “MRT (0–tn)” value [1, 5] was 6.871 ± 0.741 h, the T1/2β [1, 5] was 19.495 ± 18.931 h and the T max [1, 5] was 1.583 ± 0.376 h. For the same compound, the V/F [1, 5] was 9.987 ± 9.820 L/kg, the MAT [1, 6] was 8.198 ± 3.556 h and the “MRT (0–∞)” value [1, 6] was 8.854 ± 1.873 h. The “Change of area under the curve of CPGS by FDDP” value [1, 7] was “decreased”, the “Change of peak plasma concentration of CPGS by FDDP” value [1, 7] was “decreased” and the “Change of MAT of CPGS in the combination group” value [1, 8] was “greater degrees of decline”. For the same compound, the “Change of MRT (0-∞) of CPGS in the combination group” value [1, 8] was “greater degrees of decline”, the “Change of CL/F of CPGS in the combination group” value [1, 9] was “slightly higher” and the “Change of T max of CPGS in the combination group” value [1, 9] was “slightly higher”. For the same compound, the “Pharmacokinetic model describing CPGS” value ([1]; rat plasma after clopidogrel alone or with FDDP) was “two-compartment open model”, the “Stability in extracted plasma samples” value ([2]; 24 h at room temperature) was “stable” and the “Long-term stability of spiked plasma samples” value ([2]; stored at −20°C, 20 days) was “stable”.
For COC(=O)[C@H](c1ccccc1Cl)N1CCc2sccc2C1 [clopidogrel], the “Share of absorbed parent drug transformed by CES1 into inactive carboxylic acid derivative (CPGS)” value [3] is listed as 85%, the “Patients displaying inadequate antiplatelet responses” value (antiplatelet responses) is listed as 5–40% and the “Share of absorbed clopidogrel dose transformed by CYP into thiol metabolite” value (cytochrome P450 (CYP)) is listed as 15%.
